Data reported in patent publication US9827228B2, “Opioid receptor modulators and use thereof” (priority 2015, dated 2017).
pEC50: −log10 of the molar value. Read-outs that look alike come from different tables or passages of the source.

Target: T1, hMOR (Homo sapiens, UniProt P35372)
T1 construct: host or cells: CHO-K1
Experiment: cell-based
Assay type: cell-based
Settings: for AUC: AUC of [Ca2+]i fluorescence
Procedure: Chinese hamster ovary (CHO)-K1 cells expressing hMOR and Gα15 (CHO-K1/MOR/Gα15) were cultured in F12 medium (GIBCO) supplemented with 10 μg/mL Hygromycin B (Invivogen), 20 μg/mL Zeocin (Invivogen) and P/S/F (100 units/mL penicillin, 100 μg/mL streptomycin, 10% fetal bovine serum). The cultures were incubated at 37° C. in a humidified 5% CO2 incubator.
One day prior to running the assay, CORNING® black 96-well assay plates having a clear flat bottom were coated with a 0.1 mg/mL Poly-L-Lysine solution. CHO-K1/MOR/Gα15 cells were suspended in F12 medium and plated at a density of about 8×10^4 cells/well in 200 μL medium. Cells were incubated under a humidified atmosphere of 10% CO2 at 37° C. overnight to reach an 80-90% confluent cell monolayer before the assay. On the day of the assay, 150 μL medium was removed from each well of the plates. To each well were added FLIPR® calcium assay reagents (Molecular Devices Corporation, Sunnyvale, Calif., USA; 50 μL) dissolved in 1× assay buffer (HBSS: KCl 5 mM, KH2PO4 0.3 mM, NaCl 138 mM, NaHCO3 4 mM, Na2HPO4 0.3 mM, d-glucose 5.6 mM, with additional 20 mM HEPES and […], pH 7.4) and 2.5 mM probenecid. After incubation at 37° C. for 1 hour, a test compound, alone or together with naloxone (a MOR antagonist), was also added to each well. Using a FlexStationlll instrument (Molecular Devices Corp.), increments of the [Ca^2+]i fluorescence after robotic injection of the cell suspension were monitored at 1.52 s intervals using the excitation wavelength of 485 nm and the emission wavelength of 525 nm. The [Ca^2+]i fluorescence was measured up to 90 s after the injection. The fluorescence intensity from 6 to 12 wells of cells were averaged and the relative amount of [Ca^2+]i release was determined by integrating the AUC of the [Ca^2+]i fluorescence averages.
A CHO-K1 cell line expressing MOR and Gα15 (GenScript) was used to set up a sensitive high-throughput screen (HTS) system. […] The HTS was performed in the absence or presence of naloxone (an opioid antagonist; 20 nM), to identify AAMs.

[1] = combined with naloxone, CHO-K1/MOR/Gα15 cells
[2] = combined with naloxone, CHO-K1/MOR/Gα15 cells, read-out: EC50
[3] = EC50, combined with naloxone, CHO-K1/MOR/Gα15 cells

T1 sequence (P35372 whole entry): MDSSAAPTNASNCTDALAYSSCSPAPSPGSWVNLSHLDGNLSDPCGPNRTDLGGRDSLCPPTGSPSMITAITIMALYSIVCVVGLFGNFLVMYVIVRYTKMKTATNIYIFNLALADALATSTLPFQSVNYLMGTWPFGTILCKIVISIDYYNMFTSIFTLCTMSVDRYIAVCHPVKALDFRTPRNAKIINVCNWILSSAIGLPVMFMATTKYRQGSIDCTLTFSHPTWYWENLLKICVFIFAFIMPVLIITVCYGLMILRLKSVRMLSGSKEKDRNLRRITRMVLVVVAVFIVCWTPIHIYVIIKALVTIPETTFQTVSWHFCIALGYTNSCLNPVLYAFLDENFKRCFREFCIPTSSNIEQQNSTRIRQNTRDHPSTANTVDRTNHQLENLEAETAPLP

| Structure (SMILES) | AUC [1] | pEC50 [2] | pEC50 (EC50, combined with naloxone) | pEC50 [3] |
| --- | --- | --- | --- | --- |
| COc1cccc(C)c1Nc1nc(-c2sc(C)nc2C)cs1 [Compound 4, N-(2-Methoxy-6-methylphenyl)-2′,4′-dimethyl-4,5′-bi-1,3-thiazol-2-amine] | + (+: >5000) | < 5.00 | – | – |
| Cc1nc(C)c(-c2csc(Nc3ccccc3Oc3ccccc3)n2)s1 [Compound 6, N-(2-Phenoxyphenyl)-2′,4′-dimethyl-4,5′-bi-1,3-thiazol-2-amine] | − (−: <5000) | < 5.00 | – | – |
| Cc1nc(C)c(-c2csc(Nc3ccccc3Cl)n2)s1 [Compound 8, N-(2-Chlorophenyl)-2′,4′-dimethyl-4,5′-bi-1,3-thiazol-2-amine] | − (−: <5000) | < 5.00 | – | – |
| Cc1nc(C)c(-c2csc(Nc3ccccc3F)n2)s1 [Compound 9, N-(2-Fluorophenyl)-2′,4′-dimethyl-4,5′-bi-1,3-thiazol-2-amine] | − (−: <5000) | < 5.00 | – | – |
| Cc1nc(C)c(-c2csc(Nc3cc(F)ccc3C)n2)s1 [Compound 10, N-(5-Fluoro-2-methylphenyl)-2′,4′-dimethyl-4,5′-bi-1,3-thiazol-2-amine] | − (−: <5000) | < 5.00 | – | – |
| COc1ccc(C)c(Nc2nc(-c3sc(C)nc3C)cs2)c1 [Compound 12, N-(5-Methoxy-2-methylphenyl)-2′,4′-dimethyl-4,5′-bi-1,3-thiazol-2-amine] | − (−: <5000) | < 5.00 | – | – |
| COc1ccc(Nc2nc(-c3sc(C)nc3C)cs2)c(OC)c1 [Compound 14, N-(2,4-Dimethoxyphenyl)-2′,4′-dimethyl-4,5′-bi-1,3-thiazol-2-amine] | + (+: >5000) | < 5.00 | – | – |
| Cc1nc(C)c(-c2csc(Nc3cc(Cl)ccc3C)n2)s1 [Compound 15, N-(5-Chloro-2-methylphenyl)-2′,4′-dimethyl-4,5′-bi-1,3-thiazol-2-amine] | − (−: <5000) | < 5.00 | – | – |
| Cc1cc(C)c(Nc2nc(-c3sc(C)nc3C)cs2)c(C)c1 [Compound 17, 2′,4′-Dimethyl-N-(2,4,6-trimethylphenyl)-4,5′-bi-1,3-thiazol-2-amine] | + (+: >5000) | – | > 5.00 | 5.00 to 5.52 |
| Cc1nc(C)c(-c2csc(Nc3cc(Br)ccc3C)n2)s1 [Compound 19, N-(5-Bromo-2-methylphenyl)-2′,4′-dimethyl-4,5′-bi-1,3-thiazol-2-amine] | − (−: <5000) | < 5.00 | – | – |
| Cc1nc(C)c(-c2csc(Nc3cccc(F)c3C)n2)s1 [Compound 21, N-(3-Fluoro-2-methylphenyl)-2′,4′-dimethyl-4,5′-bi-1,3-thiazol-2-amine] | + (+: >5000) | < 5.00 | – | – |
| Cc1nc(C)c(-c2csc(Nc3c(C(C)C)cccc3C(C)C)n2)s1 [Compound 23, N-(2,6-Diisopropylphenyl)-2′,4′-dimethyl-4,5′-bi-1,3-thiazol-2-amine] | − (−: <5000) | < 5.00 | – | – |
| Cc1ccc(C)c(Nc2nc(-c3sc(C)nc3C)cs2)c1 [Compound 25, N-(2,5-Dimethylphenyl)-2′,4′-dimethyl-4,5′-bi-1,3-thiazol-2-amine] | − (−: <5000) | < 5.00 | – | – |
| COc1cc(C)c(Nc2nc(-c3sc(C)nc3C)cs2)cc1OC [Compound 27, N-(4,5-Dimethoxy-2-methylphenyl)-2′,4′-dimethyl-4,5′-bi-1,3-thiazol-2-amine] | − (−: <5000) | < 5.00 | – | – |
| Cc1ccc(Nc2nc(-c3sc(C)nc3C)cs2)c(C)c1 [Compound 29, N-(2,4-Dimethylphenyl)-2′,4′-dimethyl-4,5′-bi-1,3-thiazol-2-amine] | + (+: >5000) | – | > 5.00 | 5.00 to 5.52 |
| Cc1nc(C)c(-c2csc(Nc3ccc(F)cc3C)n2)s1 [Compound 31, N-(4-Fluoro-2-methylphenyl)-2′,4′-dimethyl-4,5′-bi-1,3-thiazol-2-amine] | − (−: <5000) | < 5.00 | – | – |
| Cc1nc(C)c(-c2csc(Nc3c(C)cccc3F)n2)s1 [Compound 33, N-(2-Fluoro-6-methylphenyl)-2′,4′-dimethyl-4,5′-bi-1,3-thiazol-2-amine] | + (+: >5000) | – | > 5.00 | 5.00 to 5.52 |

| Structure (SMILES) | AUC [1] | pEC50 [2] | pEC50 (EC50, combined with naloxone) | pEC50 [3] |
| --- | --- | --- | --- | --- |
| COc1ccc(Nc2nc(-c3sc(C)nc3C)cs2)c(C)c1 [Compound 35, N-(4-Methoxy-2-methylphenyl)-2′,4′-dimethyl-4,5′-bi-1,3-thiazol-2-amine] | + (+: >5000) | < 5.00 | – | – |
| COc1cc(Nc2nc(-c3sc(C)nc3C)cs2)cc(OC)c1OC [Compound 37, 2′,4′-Dimethyl-N-(3,4,5-trimethoxyphenyl)-4,5′-bi-1,3-thiazol-2-amine] | − (−: <5000) | < 5.00 | – | – |
| Cc1cc(C)cc(Nc2nc(-c3sc(C)nc3C)cs2)c1 [Compound 39, N-(3,5-Dimethylphenyl)-2′,4′-dimethyl-4,5′-bi-1,3-thiazol-2-amine] | − (−: <5000) | < 5.00 | – | – |
| Cc1nc(C)c(-c2csc(Nc3c(C)cccc3C)n2)s1 [Compound 41, N-(2,6-Dimethylphenyl)-2′,4′-dimethyl-4,5′-bi-1,3-thiazol-2-amine] | − (−: <5000) | < 5.00 | – | – |
| Cc1nc(C)c(-c2csc(Nc3ccc(Br)cc3C)n2)s1 [Compound 42, N-(4-Bromo-2-methylphenyl)-2′,4′-dimethyl-4,5′-bi-1,3-thiazol-2-amine] | − (−: <5000) | < 5.00 | – | – |
| Cc1nc(C)c(-c2csc(Nc3ccc(Br)cc3C(F)(F)F)n2)s1 [Compound 43, N-[4-Bromo-2-(trifluoromethyl)phenyl]-2′,4′-dimethyl-4,5′-bi-1,3-thiazol-2-amine] | + (+: >5000) | < 5.00 | – | – |
| CC(=O)c1ccc(Nc2nc(-c3sc(C)nc3C)cs2)cc1 [Compound 44, 1-{4-[(2′,4′-Dimethyl-4,5′-bi-1,3-thiazol-2-yl)amino]phenyl}ethanone] | − (−: <5000) | – | – | < 5.00 |
| CCc1cccc(CC)c1Nc1nc(-c2sc(C)nc2C)cs1 [Compound 45, N-(2,6-Diethylphenyl)-2′,4′-dimethyl-4,5′-bi-1,3-thiazol-2-amine] | − (−: <5000) | – | > 5.00 | 5.52 to 6.00 |
| CCc1cccc(C)c1Nc1nc(-c2sc(C)nc2C)cs1 [Compound 47, N-(2-Ethyl-6-methylphenyl)-2′,4′-dimethyl-4,5′-bi-1,3-thiazol-2-amine] | + (+: >5000) | – | > 5.00 | 5.52 to 6.00 |
| CCc1cc(Br)ccc1Nc1nc(-c2sc(C)nc2C)cs1 [Compound 49, N-(4-Bromo-2-ethylphenyl)-2′,4′-dimethyl-4,5′-bi-1,3-thiazol-2-amine] | − (−: <5000) | – | > 5.00 | 5.00 to 5.52 |
| Cc1nc(C)c(-c2csc(Nc3c(C)cc(Cl)cc3C)n2)s1 [Compound 51, N-(4-Chloro-2,6-dimethylphenyl)-2′,4′-dimethyl-4,5′-bi-1,3-thiazol-2-amine] | − (−: <5000) | < 5.00 | – | – |
| Cc1nc(C)c(-c2csc(Nc3cccc(C)c3C)n2)s1 [Compound 53, N-(2,3-Dimethylphenyl)-2′,4′-dimethyl-4,5′-bi-1,3-thiazol-2-amine] | + (+: >5000) | < 5.00 | – | – |
| Cc1nc(C)c(-c2csc(Nc3c(C)cc(F)cc3C)n2)s1 [Compound 55, N-(4-Fluoro-2,6-dimethylphenyl)-2′,4′-dimethyl-4,5′-bi-1,3-thiazol-2-amine] | + (+: >5000) | < 5.00 | – | – |
| Cc1nc(C)c(-c2csc(Nc3ccc(C(=O)O)cc3C)n2)s1 [Compound 57, 4-[(2′,4′-Dimethyl-4,5′-bi-1,3-thiazol-2-yl)amino]-3-methylbenzoic acid] | − (−: <5000) | < 5.00 | – | – |
| Cc1nc(C)c(-c2csc(Nc3ccc(O)cc3C)n2)s1 [Compound 60, 4-[(2′,4′-Dimethyl-4,5′-bi-1,3-thiazol-2-yl)amino]-3-methylphenol] | − (−: <5000) | < 5.00 | – | – |
| Cc1nc(C)c(-c2csc(Nc3ccccc3CO)n2)s1 [Compound 62, {2-[(2′,4′-Dimethyl-4,5′-bi-1,3-thiazol-2-yl)amino]phenyl}methanol] | − (−: <5000) | < 5.00 | – | – |
| Cc1nc(C)c(-c2csc(Nc3ccccc3O)n2)s1 [Compound 65, 2-[(2′,4′-Dimethyl-4,5′-bi-1,3-thiazol-2-yl)amino]phenol] | + (+: >5000) | < 5.00 | – | – |
